Experimental data reported in ChEMBL document CHEMBL1133304, “Design and synthesis of potent thiol-based inhibitors of endothelin converting enzyme-1” (Bioorg Med Chem Lett, 2000).
pIC50: −log10 of the molar value.

Tests used:
[1] = system: Rattus norvegicus; assay: Intravenously injected compound (0.3 nmol/kg) was tested in rat for the inhibitory activity against endothelin-1 (ET-1) pressor response after 24 hour; assay type: functional
[2] = system: Rattus norvegicus; assay: Intravenously injected compound (0.3 nmol/kg) was tested in rat for the inhibitory activity against endothelin-1 (ET-1) pressor response after 8 hour; assay type: functional
[3] = target: T1, Endothelin-converting enzyme 1 (Homo sapiens, UniProt P42892); assay: In vitro inhibition of human Endothelin converting Enzyme-1 activity
T1 sequence (P42892 whole entry): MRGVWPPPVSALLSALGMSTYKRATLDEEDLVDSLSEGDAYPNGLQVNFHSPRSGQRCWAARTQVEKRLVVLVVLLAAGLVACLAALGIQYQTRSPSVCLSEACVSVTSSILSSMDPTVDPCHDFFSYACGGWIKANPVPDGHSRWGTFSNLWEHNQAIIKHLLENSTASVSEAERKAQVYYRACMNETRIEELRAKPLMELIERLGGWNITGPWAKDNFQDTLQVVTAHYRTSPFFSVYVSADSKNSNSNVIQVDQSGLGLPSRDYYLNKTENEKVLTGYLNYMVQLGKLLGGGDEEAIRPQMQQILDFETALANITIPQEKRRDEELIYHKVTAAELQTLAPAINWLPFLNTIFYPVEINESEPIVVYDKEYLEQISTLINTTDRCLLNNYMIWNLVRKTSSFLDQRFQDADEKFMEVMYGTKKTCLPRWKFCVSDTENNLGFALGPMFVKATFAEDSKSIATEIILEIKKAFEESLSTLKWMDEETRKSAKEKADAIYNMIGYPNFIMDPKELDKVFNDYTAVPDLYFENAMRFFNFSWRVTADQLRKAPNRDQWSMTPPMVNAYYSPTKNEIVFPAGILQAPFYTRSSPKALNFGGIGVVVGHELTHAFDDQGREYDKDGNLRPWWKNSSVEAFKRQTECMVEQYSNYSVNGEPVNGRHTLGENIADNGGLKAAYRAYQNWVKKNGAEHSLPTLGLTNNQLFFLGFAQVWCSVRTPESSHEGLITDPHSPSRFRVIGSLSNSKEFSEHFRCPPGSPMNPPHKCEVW

SMILES | Inhibition [1] | Inhibition [2] | pIC50 [3]
CCC[C@H](SC(C)=O)C(=O)NC1(C(=O)N[C@@H](Cc2ccc(-c3ccccc3)cc2)C(=O)OC)CCCC1 | 30% | 75% | 
CC(C)[C@H](S)C(=O)NC1(C(=O)N[C@@H](Cc2ccc(-c3ccccc3)cc2)C(=O)O)CCCC1 |  |  | 7.11
